Values quoted from earlier work in US12611671B2, “Methods, systems and kits for in-pen assays” (Bruker Cellular Analysis, Inc., priority 2016, dated 2026).

Molecular target: IgG
Conditions: (Fc); read-out: Affinity for IgG

In the case of “DCAWHLGELVWCT [CPD 4, Asp Cys Ala Trp His Leu Gly Glu Leu Val Trp Cys Thr]”, the Kd is given as 100 nM.
